Measured values: US20080260722A1, “Method for High Efficiency Survival/Proliferation of Human Embyonic Stem Cells and Human Embryo Survival in Culture” (The Johns Hopkins University Johns Hopkins Technology …, priority 2004, published 2008)

Tests used:
TRKs = settings: cited from earlier work
hES cells [1] = assay: low-density survival assay in MEF-CM with TRK inhibitors; type: cell-based, human; settings: increasing inhibitor concentrations, versus DMSO vehicle
Description: TRK signaling and survival can be blocked by pharmacological inhibition; TRK inhibitors were added to hES cells plated with MEF-CM in the low-density survival assay; hES cells were exposed to increasing concentrations of a GW441756, K252A, or vehicle (DMSO).
Human ES cell lines H1 and H9 were cultured as described by Thornson and colleagues^15 in high glucose DMEM supplemented with L-glutanine, non-essential amino acids, serum replacement (Invitrogen) and 4 ng/ml basic Fibroblast growth factor (Invitrogen). Mouse embryo fibroblasts (MEFs) (Specialty Media). were plated at 5-7×10^6 cells/ml. To prepare single cell suspensions of hES cells, the cells were washed twice with PBS, then incubated in 0.05% trypsin/EDTA (InVitrogen) for 5 minutes at 37° C. The cells were triturated with a 5-ml pipette until a single cell suspension was obtained. […] For low-density survival assays, trypsinized cells were counted using a hemocytometer and 500 cells were plated in each well of 96-well plate containing MEFs or coated with Matrigel (BD Biosciences). […] Individual hES cells or hES cell colonies were counted manually on an inverted microscope. […]
To test this prediction, hES cell survival was measured using the low density survival assay in the presence or absence of two different TRK inhibitors, GW441756 and K252a^17-19.

hES cells [2] = assay: low-density survival assay in NTs without bFGF with pathway inhibitors; type: cell-based, human; settings: single cells at low density in NTs, no bFGF, increasing inhibitor concentrations
Description: FIG. 8. PI-3K activity is required for hES cell survival; a. […] NTs have differential effects on AKT and MEK1/2 phosphorylation; hES cells were grown in the presence or absence of NTs (but without bFGF) and cell lysates probed with antibodies to phospho-AKT or phospho-MEK1/2; in the absence of NTs, a weak phospho-AKT band is observed; upon stimulation of hES cells with NTs a stronger band is observed; the intensity of the bands were compared to the total level of AKT and to a loading control (Beta-tubulin); in contrast no change in the level of phospho-MEK1/2 was observed by comparison with the controls.
Human ES cell lines H1 and H9 were cultured as described by Thornson and colleagues^15 in high glucose DMEM supplemented with L-glutanine, non-essential amino acids, serum replacement (Invitrogen) and 4 ng/ml basic Fibroblast growth factor (Invitrogen). Mouse embryo fibroblasts (MEFs) (Specialty Media). were plated at 5-7×10^6 cells/ml. To prepare single cell suspensions of hES cells, the cells were washed twice with PBS, then incubated in 0.05% trypsin/EDTA (InVitrogen) for 5 minutes at 37° C. […] For low-density survival assays, trypsinized cells were counted using a hemocytometer and 500 cells were plated in each well of 96-well plate containing MEFs or coated with Matrigel (BD Biosciences). […] Individual hES cells or hES cell colonies were counted manually on an inverted microscope. […]

hES cells [3] = assay: low-density survival assay with individual neurotrophins on MEFs or Matrigel; type: cell-based, human; settings: 500 cells/well on MEFs or Matrigel, 0.01-100 ng/ml, 4-5 days
Source text: FIG. 4. Individual neurotrophins have dose-dependent effects on hES cell survival; a. Effect of NTs on hES cell survival at low-density on MEFs. hES cells were trypsinized and plated at low density (500 cells per well) on MEFs in 96-well plates in the presence of NT3, BDNF, NT4, NGF or hES medium lacking added growth factor; After 4-5 days, the colonies (comprised of approximately 7-11 cells) were fixed and stained for alkaline phosphatase; b. […] NTs (BDNF, NT4 and NT3) also have statistically significant differences between concentrations of 0.01-100 ng/ml at p<0.05; c. Phase contrast images (at 4×) of morphology of hES cell colonies observed on MEFs or Matrigel™ in the low-density survival assay.
Human ES cell lines H1 and H9 were cultured as described by Thornson and colleagues^15 in high glucose DMEM supplemented with L-glutanine, non-essential amino acids, serum replacement (Invitrogen) and 4 ng/ml basic Fibroblast growth factor (Invitrogen). Mouse embryo fibroblasts (MEFs) (Specialty Media). were plated at 5-7×10^6 cells/ml. To prepare single cell suspensions of hES cells, the cells were washed twice with PBS, then incubated in 0.05% trypsin/EDTA (InVitrogen) for 5 minutes at 37° C. The cells were triturated with a 5-ml pipette until a single cell suspension was obtained. Trypsin inhibitor (InVitrogen) was added and the cell suspension filtered through a […] (Fisher Scientific) to remove clumps and MEFs. For clonal survival assays, single hES cells were diluted to clonal density and plated into a well of a 96-well plate containing MEFs. For low-density survival assays, trypsinized cells were counted using a hemocytometer and 500 cells were plated in each well of 96-well plate containing MEFs or coated with Matrigel (BD Biosciences). To visualize hES colonies, cultures were fixed in 4% para-formaldehyde in PBS for 30 minutes, washed once in PBS, once in distilled H2O, then stained for alkaline phosphatase activity as described previously^25. Individual hES cells or hES cell colonies were counted manually on an inverted microscope. NGF, BDNF, NT3 and NT4 were purchased from Peprotech. The TRK inhibitors GW441756 (Sigma) and K252A (Calbiochem), PI-3K inhibitor, MAPK inhibitors, STAT3 inhibitor and control peptides (all from Calbiochem) were prepared according to the manufacturer's instructions. For the antibody blocking experiments, antibodies to NGF, NT3, NT4 and BDNF as well as a control antibody were obtained from Promega. Antibodies were added to culture medium at a concentration of 20 ug/ml. Following culture, the cultures were fixed and stained for alkaline phosphatase activity as described above. Each experiment consisted of at least four replicates per treatment and each experiment was repeated at least three times. […]

Cn1cc(/C=C2\C(=O)Nc3cccnc32)c2ccccc21 [GW441756]
selectivity for TRKs over many kinases including c-Src, VEGFR2, Raf and CDK1 (TRKs): 10-fold, or in some cases 100-fold | effect on hES cell survival (hES cells [1]): statistically-significant and dose-dependent effects on hES cell survival

COc1cccc(-c2cc(=O)c3ccccc3o2)c1N [PD98059]
effect on hES cell survival (hES cells [2]): no effect on hES cell survival

nerve growth factors [NGF]
effect on hES cell survival (hES cells [3]): slight increase in hES cell survival

CS/C(N)=C(C#N)/C(C#N)=C(\N)SC [UO124]
effect on hES cell survival (hES cells [2]): no effect on hES cell survival

COC(=O)[C@@]1(O)C[C@H]2O[C@]1(C)n1c3ccccc3c3c4c(c5c6ccccc6n2c5c31)C(=O)NC4 [K252a]
effect on hES cell survival (hES cells [1]): statistically-significant and dose-dependent effects on hES cell survival

B1: neurotrophin 4 (protein, UniProt P34130 81-210, looked up)
Neurotrophin-4: GVSETAPASRRGELAVCDAVSGWVTDRRTAVDLRGREVEVLGEVPAAGGSPLRQYFFETRCKADNAEEGGPGAGGGGCRGVDRRHWVSECKAKQSYVRALTADAQGRVGWRWIRIDTACVCTLLSRTGRA
notes: TRK ligand, neurotrophin purchased from Peprotech
effect on hES cell survival (hES cells [3]): potent, dose dependent effects on hES cell survival

B2: brain derived neurotrophic factor (protein, UniProt P23560 19-247, looked up)
Neurotrophic factor BDNF …: APMKEANIRGQGGLAYPGVRTHGTLESVNGPKAGSRGLTSLADTFEHVIEELLDEDQKVRPNEENNKDADLYTSRVMLSSQVPLEPPLLFLLEEYKNYLDAANMSMRVRRHSDPARRGELSVCDSISEWVTAADKKTAVDMSGGTVTVLEKVPVSKGQLKQYFYETKCNPMGYTKEGCRGIDKRHWNSQCRTTQSYVRALTMDSKKRIGWRFIRIDTSCVCTLTIKRGR
notes: as for B1
effect on hES cell survival (hES cells [3]): potent, dose dependent effects on hES cell survival

B3: neurotrophin 3 (protein, UniProt P20783 139-257, looked up)
Neurotrophin-3: YAEHKSHRGEYSVCDSESLWVTDKSSAIDIRGHQVTVLGEIKTGNSPVKQYFYETRCKEARPVKNGCRGIDDKHWNSQCKTSQTYVRALTSENNKLVGWRWIRIDTSCVCALSRKIGRT
notes: as for B1
effect on hES cell survival (hES cells [3]): potent, dose dependent effects on hES cell survival
